According to ChEMBL document CHEMBL1201862, “PubChem BioAssay data set” (2004):
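1) Cells in 96-well plates. 2) Compound, 48 h, 5 concentrations. 3) Linear interpolation between surrounding doses. 4) Unreached endpoint = highest concentration. The concentration for 50% growth inhibition is given as GI50.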 The source made the active and inactive calls. Rule as the data show it: active = GI50 up to about 1.1 µM and inactive = higher.

Legend:
Assay in all cases: NCI anticancer screen, dose series, 48 h
[1] = system: DU-145
[2] = system: NCI-H23
[3] = system: SN12C
[4] = system: M14
[5] = system: MOLT-4
[6] = system: RPMI-8226
[7] = system: IGROV-1
[8] = system: UACC-257
[9] = system: A549
[10] = system: SW-620
[11] = system: SR
[12] = system: K562
[13] = system: TK-10
[14] = system: SF-295
[15] = system: LOX IMVI
[16] = system: NCI-H522
[17] = system: SNB-19
[18] = system: 786-0
[19] = system: MDA-MB-231
[20] = system: U-251

Measured: GI50

COC(=O)c1c[nH]c(=O)[nH]c1=O [ISOOROTIC ACID METHYL ESTER]
inactive: [1] > 100 µM | [2] > 100 µM | [3] > 100 µM | [4] > 100 µM | [5] > 100 µM | [6] > 100 µM | [7] > 100 µM | [8] > 100 µM | [9] > 100 µM | [10] > 100 µM | [11] > 100 µM | [12] > 100 µM | [13] > 100 µM | [14] > 100 µM | [15] > 100 µM | [16] > 100 µM | [17] > 100 µM | [18] > 100 µM

Cc1ccc(S(=O)(=O)Nn2c(-c3ccccc3)c(C#N)c(-c3ccc(Cl)cc3)c(C#N)c2=O)cc1
inactive: [3] 35.7 µM | [4] 18.4 µM | [5] 18.7 µM | [6] 14 µM | [8] 32.8 µM | [9] 26.9 µM | [10] 30.4 µM | [19] 20 µM | [12] 33.7 µM | [13] 38 µM | [14] 26.8 µM | [15] 21.4 µM | [17] 31.2 µM | [20] 21.5 µM | [18] 6.79 µM

O=C(CCc1nnc2s/c(=C\c3ccc(Cl)c(Cl)c3)c(=O)n12)Nc1ccc(Cl)c(Cl)c1
inactive: [2] > 100 µM | [3] > 100 µM | [4] > 100 µM | [5] 20.7 µM | [6] 20.4 µM | [7] 44.2 µM | [8] > 100 µM | [9] > 100 µM | [10] > 100 µM | [11] 24.8 µM | [12] 72.8 µM | [13] > 100 µM | [14] 46.1 µM | [15] 19.2 µM | [16] 25.1 µM | [17] 45 µM | [20] 36.9 µM | [18] > 100 µM

COC1=CC(=O)[C@H]2[C@H](C)C(c3ccccc3)[C@@]2(C)C1=O (some centres not stated)
inactive: [2] > 100 µM | [4] > 100 µM | [5] > 100 µM | [6] > 100 µM | [7] > 100 µM | [9] > 100 µM | [10] > 100 µM | [11] > 100 µM | [12] > 100 µM | [13] > 100 µM | [14] > 100 µM | [15] > 100 µM | [16] > 100 µM | [17] > 100 µM | [20] > 100 µM | [18] > 100 µM

COC(=O)C1C(=O)NC2(C)CC1c1ccccc1O2 (configuration not stated)
inactive: [2] > 100 µM | [3] > 100 µM | [4] > 10 µM | [5] > 100 µM | [6] > 100 µM | [7] > 100 µM | [8] > 100 µM | [9] > 100 µM | [10] > 100 µM | [11] > 100 µM | [12] > 100 µM | [13] > 100 µM | [14] > 100 µM | [15] > 100 µM | [16] > 100 µM | [17] > 100 µM | [20] > 100 µM | [18] > 100 µM

N#C/C(=C1\N=NC(N)=C(c2ccc(Cl)cc2)C1=O)c1ccc(Cl)cc1
inactive: [2] > 100 µM | [3] > 100 µM | [4] > 100 µM | [5] > 100 µM | [6] > 100 µM | [7] > 100 µM | [8] > 100 µM | [9] > 100 µM | [10] > 100 µM | [11] > 100 µM | [12] > 100 µM | [13] > 100 µM | [14] > 100 µM | [15] > 100 µM | [16] > 100 µM | [17] > 100 µM | [20] > 100 µM | [18] > 100 µM

Cc1c(C(=O)O)c2cc3ccccc3cc2c(=O)n1C
inactive: [2] > 10 µM | [3] > 10 µM | [4] > 10 µM | [7] > 10 µM | [8] > 10 µM | [9] > 10 µM | [10] > 10 µM | [11] > 10 µM | [19] > 10 µM | [13] > 10 µM | [14] > 10 µM | [15] > 10 µM | [16] > 10 µM | [17] > 10 µM | [20] > 10 µM | [18] > 10 µM

COc1ccc2c(c1)CCC1C3(CCCC21C)OCCO3 (configuration not stated)
inactive: [2] 15.6 µM | [3] 16.3 µM | [4] 18.8 µM | [5] 14.4 µM | [6] 18.8 µM | [7] 28.8 µM | [8] 20.8 µM | [9] 26.9 µM | [10] 33.9 µM | [11] 20.4 µM | [12] 15.4 µM | [13] 36.8 µM | [14] 19.3 µM | [15] 15.9 µM | [16] 15.7 µM | [17] 28.9 µM | [20] 15.9 µM | [18] 18.5 µM

CN1Cc2cc3cc4c(cc3nc2N(C)C1)OCCO4
inactive: [3] > 100 µM | [4] > 100 µM | [5] 64 µM | [6] 54.7 µM | [7] > 100 µM | [8] > 100 µM | [9] > 100 µM | [10] > 100 µM | [19] > 100 µM | [12] > 100 µM | [13] > 100 µM | [14] > 100 µM | [15] > 100 µM | [16] > 100 µM | [17] > 100 µM | [20] > 100 µM | [18] > 100 µM

COc1cccc(/C=N/n2c(C)n[nH]c2=O)c1
inactive: [2] > 100 µM | [3] > 100 µM | [4] > 100 µM | [5] > 100 µM | [6] > 100 µM | [8] > 100 µM | [9] > 100 µM | [10] > 100 µM | [19] > 100 µM | [12] > 100 µM | [14] > 100 µM | [17] > 100 µM | [20] > 100 µM | [18] > 100 µM

COc1ccc(CN2C(=O)[C@@H]3Cc4c(OC)c(C)c(OC)c(OC)c4[C@H](/C2=C\c2cc(OC)c(OC)c(C)c2OC)N3C(=O)OC(C)C)cc1
inactive: [2] 66.4 µM | [3] > 100 µM | [4] 28.4 µM | [5] 6.97 µM | [6] 8.34 µM | [7] > 100 µM | [8] 8.28 µM | [9] 58.9 µM | [10] 94.8 µM | [11] 6.53 µM | [12] 25.3 µM | [13] 78 µM | [14] 96.2 µM | [15] 43 µM | [16] 8.75 µM | [17] > 100 µM | [20] > 100 µM | [18] > 100 µM

CCOC(=O)CC(C)C1(C=O)CCCCC1=O (configuration not stated)
inactive: [3] > 100 µM | [4] 29.6 µM | [5] > 100 µM | [6] 20.6 µM | [7] > 100 µM | [8] > 100 µM | [9] > 100 µM | [11] 19.9 µM | [12] > 100 µM | [13] > 100 µM | [14] > 100 µM | [15] 18.3 µM | [16] 90.4 µM | [17] > 100 µM | [20] > 100 µM | [18] 31 µM
